The nature of this series: n-Octanol/water partition coefficient, log P of the compound. Format: physicochemical.
As a reminder, the logP is the decadic logarithm of the partition coefficient of the neutral form, usually between octanol and water. Read a high logP as higher lipophilicity. As for `CCCCCCCCCCCC(=O)NCCCC(O)(P(=O)(O)O)P(=O)(O)O`, the logP was determined as 0.027.

Turning to `CCCCCCCCCCCCCC(=O)NCCCC(O)(P(=O)(O)O)P(=O)(O)O`, the logP turned out to be 0.045.

In turn, `CCCCCCCCCCCCCCCCCC(=O)NCCCC(O)(P(=O)(O)O)P(=O)(O)O` had a logP of 0.063.

Regarding `CCCCCCCCCCCCCCCC(=O)NCCCC(O)(P(=O)(O)O)P(=O)(O)O`, the lipophilicity (logP) stood at 0.053.

Source of the values: ChEMBL document CHEMBL5252553, “Synthesis and biological activities of drugs for the treatment of osteoporosis” (Eur J Med Chem, 2020).
